Calls of active or inactive are those of the source. No cut-off for these calls is given here.
Molecular target: c-Myc/c-Max (Homo sapiens) (UniProt P01106+P61244)
Assay: (§1) Inhibition of Nanoluc-tagged c-Myc/Halo-tagged MAX (unknown origin) interaction expressed in HEK293T cells assessed as degradation measured after 4 to 6 hrs by NanoBRET assay
Type: cell-based
Settings: time 4-6 hrs

Chain of c-Myc/c-Max (Homo sapiens) (P01106 whole entry): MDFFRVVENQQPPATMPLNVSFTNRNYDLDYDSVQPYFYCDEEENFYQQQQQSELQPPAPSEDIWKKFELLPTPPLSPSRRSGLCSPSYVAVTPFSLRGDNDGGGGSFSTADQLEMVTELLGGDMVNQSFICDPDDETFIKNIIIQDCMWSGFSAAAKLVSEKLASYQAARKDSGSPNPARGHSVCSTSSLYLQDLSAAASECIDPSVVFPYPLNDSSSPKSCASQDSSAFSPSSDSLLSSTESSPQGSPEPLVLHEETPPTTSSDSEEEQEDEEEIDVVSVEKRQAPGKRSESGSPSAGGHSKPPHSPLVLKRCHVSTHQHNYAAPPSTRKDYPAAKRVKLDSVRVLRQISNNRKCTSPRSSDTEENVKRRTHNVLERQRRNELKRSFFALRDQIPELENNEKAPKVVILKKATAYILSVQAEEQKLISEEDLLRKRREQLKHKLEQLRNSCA
Chain of c-Myc/c-Max (Homo sapiens) (P61244 2-160 partner limits assumed): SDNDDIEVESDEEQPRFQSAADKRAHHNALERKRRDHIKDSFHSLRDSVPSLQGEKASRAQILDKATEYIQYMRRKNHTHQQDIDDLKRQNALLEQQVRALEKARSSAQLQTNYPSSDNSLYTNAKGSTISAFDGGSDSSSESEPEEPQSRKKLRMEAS

Row | inhibition | Compound
1 | Dose-dependent effect | O=C(NC(NC(=S)Nc1ccc(I)cc1)C(Cl)(Cl)Cl)c1cccc(I)c1 (stereo not drawn)

Molecular target: c-Myc/c-Max (Homo sapiens, UniProt P01106)
Sequence (P01106 whole entry): as the sequence (P01106 whole entry) above
Sequence (P61244 whole entry, further chain): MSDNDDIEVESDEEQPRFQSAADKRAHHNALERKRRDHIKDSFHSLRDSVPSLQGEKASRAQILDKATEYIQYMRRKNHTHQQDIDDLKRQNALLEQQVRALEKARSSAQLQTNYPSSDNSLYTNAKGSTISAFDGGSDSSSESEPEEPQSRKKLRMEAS
Assay: as §1
Type: cell-based
Settings: not given

Row | EC50 | Compound
2 | 29.1 µM | O=C(NC(NC(=S)Nc1ccc(I)cc1)C(Cl)(Cl)Cl)c1cccc(I)c1 (stereo not drawn)

System: not listed separately
Assay: Antiproliferative activity against rat TGR-1 harboring c-Myc assessed as reduction in cell viability measured on day 3 by MTT assay
Type: functional
Settings: TGR1, 72 h

Row | Compound | EC50
3 | CCOC(=O)c1cnn(-c2ccccc2)c1NC(=O)c1cc2nc(-c3ccco3)cc(C(F)(F)Cl)n2n1 | 0.25 µM

System: ST486
Assay: Antiproliferative activity against human ST486 assessed as reduction in cell viability measured after 2 hrs
Type: functional, cell-based
Settings: ST486, 2 h

Row | Compound | EC50
4 | CCOc1ccc2nc3cc(/N=N/c4ccc(N)nc4N)ccc3c(N)c2c1 | 0.5 µM

Molecular target: Myc proto-oncogene protein (Homo sapiens) (UniProt P01106)
Sequence (P01106 whole entry): as the sequence (P01106 whole entry) above
Assay: Induction of c-Myc degradation in human HL-60 cells assesses as decrease in c-Myc protein level measured after 24 hrs by Western blot analysis
Type: cell-based
Settings: dose 3.125-25 µM

Row | Activity | Compound
5 | Dose-dependent effect | O=C(NC(NC(=S)Nc1ccc(I)cc1)C(Cl)(Cl)Cl)c1cccc(I)c1 (stereo not drawn)

System: HL-60
Assay: Induction of apoptosis in human HL-60 cells at 1 to 20 uM measured after 24 hrs by FITC-Annexin-v/propidium iodide staining based flow cytometry
Type: functional, cell-based
Settings: dose 1-20 µM

Row | Compound | Activity
6 | O=C(NC(NC(=S)Nc1ccc(I)cc1)C(Cl)(Cl)Cl)c1cccc(I)c1 (stereo not drawn) | Active

System: HL-60
Assay: Antiproliferative activity against human HL-60 cells assessed as inhibition of cell proliferation incubated for 72 hrs
Type: functional, cell-based
Settings: HL-60, 72 h

Row | EC50 | Compound
7 | 16.7 µM | O=C(NC(NC(=S)Nc1ccccc1)C(Cl)(Cl)Cl)OCc1ccccc1 (stereo not drawn)
8 | > 50 µM | NS(=O)(=O)c1ccc(NC(=S)NC(NC(=O)c2ccccc2)C(Cl)(Cl)Cl)cc1 (stereo not drawn)
9 | > 100 µM | COc1ccccc1NC(=S)NC(NC=O)C(Cl)(Cl)Cl (stereo not drawn)
10 | > 50 µM | COc1ccc(NC(=S)NC(NC(=O)OCc2ccccc2)C(Cl)(Cl)Cl)cc1 (stereo not drawn)
11 | 42.8 µM | CCOC(=O)NC(NC(=S)Nc1c(Cl)cc(Cl)cc1Cl)C(Cl)(Cl)Cl (stereo not drawn)
12 | 22.9 µM | Cc1cccc(NC(=S)NC(NC(=O)c2ccccc2C)C(Cl)(Cl)Cl)c1 (stereo not drawn)
13 | 5 µM | O=C(NC(NC(=S)Nc1ccc(Cl)cc1)C(Cl)(Cl)Cl)c1ccccc1 (stereo not drawn)
14 | 10.2 µM | COC(=O)c1ccc(NC(=S)NC(NC(=O)OCc2ccccc2)C(Cl)(Cl)Cl)cc1 (stereo not drawn)
15 | 14.3 µM | COC(=O)c1ccc(NC(=S)NC(NC(=O)c2ccccc2C)C(Cl)(Cl)Cl)cc1 (stereo not drawn)
16 | 13.8 µM | Cc1ccccc1C(=O)NC(NC(=S)Nc1ccccc1I)C(Cl)(Cl)Cl (stereo not drawn)
17 | 17.2 µM | Cc1ccc(NC(=S)NC(NC(=O)c2ccc(Br)cc2)C(Cl)(Cl)Cl)cc1 (stereo not drawn)
18 | 8.1 µM | Cc1ccc(N=C(S)NC(NC(=O)c2ccccc2)C(Cl)(Cl)Cl)c(C)c1 (stereo not drawn)
19 | 32.5 µM | O=C(Cc1ccccc1)NC(NC(=S)Nc1ccc(Cl)c(Cl)c1)C(Cl)(Cl)Cl (stereo not drawn)
20 | 11.7 µM | O=C(NC(NC(=S)Nc1ccc(F)cc1)C(Cl)(Cl)Cl)OCc1ccccc1 (stereo not drawn)
21 | 9.9 µM | CCOC(=O)NC(NC(=S)Nc1ccc(I)cc1)C(Cl)(Cl)Cl (stereo not drawn)
22 | 4.5 µM | Cc1ccccc1C(=O)NC(NC(=S)Nc1ccc(Cl)c(Cl)c1)C(Cl)(Cl)Cl (stereo not drawn)
23 | 5.9 µM | O=C(NC(NC(=S)Nc1ccc(Cl)cc1)C(Cl)(Cl)Cl)c1ccccc1Cl (stereo not drawn)
24 | 6.9 µM | O=C(NC(NC(=S)Nc1cccc2ccccc12)C(Cl)(Cl)Cl)OCc1ccccc1 (stereo not drawn)

The remaining lines, values behind:

Row | Compound | EC50
25 | CC(=O)NC(NC(=S)Nc1c(Cl)cc(Cl)cc1Cl)C(Cl)(Cl)Cl (stereo not drawn) | 24 µM
26 | Cc1ccc(NC(=S)NC(NC(=O)Cc2ccccc2)C(Cl)(Cl)Cl)cc1 (stereo not drawn) | > 50 µM
27 | O=C(NCNC(=S)Nc1ccc(Cl)cc1)c1ccccc1 | > 50 µM
28 | CCOC(=O)NC(NC(=S)Nc1ccc(C)cc1)C(Cl)(Cl)Cl (stereo not drawn) | > 50 µM
29 | CCCCCCCCC(=O)NC(NC(=S)Nc1ccccc1C)C(Cl)(Cl)Cl (stereo not drawn) | > 100 µM
30 | O=C(NC(NC(=S)Nc1ccc(I)cc1)C(Cl)(Cl)Cl)c1cccc(I)c1 (stereo not drawn) | 3.3 µM
31 | O=C(/C=C/c1ccccc1)NC(NC(=S)Nc1cccc2ccccc12)C(Cl)(Cl)Cl (stereo not drawn) | 3.4 µM
32 | Cc1cccc(NC(=S)NC(NC(=O)CF)C(Cl)(Cl)Cl)c1 (stereo not drawn) | > 100 µM
33 | CC(C)C(=O)NC(NC(=S)Nc1ccc(Cl)cc1)C(Cl)(Cl)Cl (stereo not drawn) | > 100 µM
34 | O=C(NC(NC(=S)Nc1cccc(Cl)c1)C(Cl)(Cl)Cl)OCc1ccccc1 (stereo not drawn) | 8.3 µM
35 | CCCCCC(=O)NC(NC(=S)Nc1ccc(C)cc1)C(Cl)(Cl)Cl (stereo not drawn) | > 50 µM
36 | COc1ccc(NC(=S)NC(NC(=O)Cc2ccccc2)C(Cl)(Cl)Cl)cc1 (stereo not drawn) | > 50 µM
37 | Cc1ccc(NC(=S)NC(NC(=O)c2ccccc2)C(Cl)(Cl)Cl)cc1 (stereo not drawn) | 4.2 µM
38 | Cc1ccc(NC(=S)NC(NC(=O)OCc2ccccc2)C(Cl)(Cl)Cl)cc1 (stereo not drawn) | 24.9 µM
39 | O=C(CF)NC(NC(=S)Nc1ccc(Cl)cc1)C(Cl)(Cl)Cl (stereo not drawn) | 24.8 µM
40 | O=C(NC(NC(=S)Nc1ccc(Cl)c(Cl)c1)C(Cl)(Cl)Cl)OCc1ccccc1 (stereo not drawn) | 8.2 µM

Row | Compound | EC50
41 | Cc1ccc(C(=O)NC(NC(=S)Nc2cc(C(F)(F)F)ccc2Cl)C(Cl)(Cl)Cl)cc1 (stereo not drawn) | 8.7 µM
42 | COC(=O)c1ccc(NC(=S)NC(NC(=O)c2cccc3ccccc23)C(Cl)(Cl)Cl)cc1 (stereo not drawn) | 7.3 µM
43 | O=C(NC(NC(=S)Nc1ccc(Br)cc1)C(Cl)(Cl)Cl)OCc1ccccc1 (stereo not drawn) | 6.1 µM
44 | O=C(NC(NC(=S)Nc1ccc(Cl)cc1Cl)C(Cl)(Cl)Cl)OCc1ccccc1 (stereo not drawn) | 10.6 µM
45 | Cc1ccccc1C(=O)NC(NC(=S)Nc1ccccc1)C(Cl)(Cl)Cl (stereo not drawn) | 10.8 µM
46 | O=C(NC(NC(=S)Nc1ccc(Cl)cc1Cl)C(Cl)(Cl)Cl)c1ccccc1 (stereo not drawn) | 9.1 µM
47 | Cc1ccccc1N=C(S)NC(NC(=O)CF)C(Cl)(Cl)Cl (stereo not drawn) | > 100 µM
48 | O=C(CF)NC(NC(=S)Nc1ccccc1Cl)C(Cl)(Cl)Cl (stereo not drawn) | > 50 µM
49 | Cc1cccc(NC(=S)NC(NC(=O)c2ccccc2)C(Cl)(Cl)Cl)c1 (stereo not drawn) | 10.6 µM
50 | CC(=O)Nc1ccc(NC(=S)NC(NC(=O)c2ccccc2C)C(Cl)(Cl)Cl)cc1 (stereo not drawn) | > 50 µM
51 | O=C(NC(NC(=S)Nc1ccc(Cl)cc1)C(Cl)(Cl)Cl)OCc1ccccc1 (stereo not drawn) | 6.1 µM
52 | Cc1ccc(NC(S)=NC(NC(=O)N(C)C)C(Cl)(Cl)Cl)cc1 (stereo not drawn) | > 50 µM
53 | Cc1cccc(NC(=S)NC(NC(=O)Cc2ccccc2)C(Cl)(Cl)Cl)c1 (stereo not drawn) | > 100 µM
54 | COC(=O)c1ccccc1NC(=S)NC(NC(=O)c1ccc(C)cc1)C(Cl)(Cl)Cl (stereo not drawn) | 23.1 µM
55 | Cc1ccc(NC(=S)NC(NC(=O)CC(C)C)C(Cl)(Cl)Cl)cc1 (stereo not drawn) | 33.7 µM

System: not listed separately
Assay: Antiproliferative activity against human Mutu-1 assessed as reduction in cell viability measured after 2 hrs
Type: functional
Settings: Mutu-1, 2 h

Row | Compound | EC50
56 | CCOc1ccc2nc3cc(/N=N/c4ccc(N)nc4N)ccc3c(N)c2c1 | 0.5 µM

System: Daudi
Assay: Antiproliferative activity against human Daudi assessed as reduction in cell viability measured after 2 hrs
Type: functional, cell-based
Settings: not given

Row | EC50 | Compound
57 | 0.5 µM | CCOc1ccc2nc3cc(/N=N/c4ccc(N)nc4N)ccc3c(N)c2c1

System: HL-60
Assay: Cell cycle arrest in human HL-60 cells assessed as accumulation at S-phase at 3.125 to 6.25 uM measured after 24 hrs by propidium iodide staining based flow cytometry
Type: functional
Settings: dose 3.125-6.25 µM

Row | Compound | Activity
58 | O=C(NC(NC(=S)Nc1ccc(I)cc1)C(Cl)(Cl)Cl)c1cccc(I)c1 (stereo not drawn) | Active
